Assay [1] addresses T1, Baker's yeast α-glucosidase (Saccharomyces cerevisiae, UniProt P53341).
T1 construct: purchased Sigma-Aldrich Chemie GmbH (Steinheim, Germany)
As to the kind of experiment: biochemical. The following applies: phenolic compounds and metabolites; IC50 ± SD; read-out: α-Glucosidase IC50. The protocol:
The α-glucosidase inhibitory activity of the extracts was assessed according to the method described by Ranilla, et al.. Baker’s yeast α-glucosidase (EC 3.2.1.20) was purchased from Sigma-Aldrich Chemie GmbH (Steinheim, Germany).

The target in assay [2] is T2, 15-lipoxygenase (15-LO) from soybeans (Glycine max, UniProt P08170).
T2 construct: 15-lipoxygenase (15-LO) from soybeans; purchased Sigma-Aldrich (St. Louis, MO, USA); host or cells: soybeans
T2 sequence (P08170 1-839): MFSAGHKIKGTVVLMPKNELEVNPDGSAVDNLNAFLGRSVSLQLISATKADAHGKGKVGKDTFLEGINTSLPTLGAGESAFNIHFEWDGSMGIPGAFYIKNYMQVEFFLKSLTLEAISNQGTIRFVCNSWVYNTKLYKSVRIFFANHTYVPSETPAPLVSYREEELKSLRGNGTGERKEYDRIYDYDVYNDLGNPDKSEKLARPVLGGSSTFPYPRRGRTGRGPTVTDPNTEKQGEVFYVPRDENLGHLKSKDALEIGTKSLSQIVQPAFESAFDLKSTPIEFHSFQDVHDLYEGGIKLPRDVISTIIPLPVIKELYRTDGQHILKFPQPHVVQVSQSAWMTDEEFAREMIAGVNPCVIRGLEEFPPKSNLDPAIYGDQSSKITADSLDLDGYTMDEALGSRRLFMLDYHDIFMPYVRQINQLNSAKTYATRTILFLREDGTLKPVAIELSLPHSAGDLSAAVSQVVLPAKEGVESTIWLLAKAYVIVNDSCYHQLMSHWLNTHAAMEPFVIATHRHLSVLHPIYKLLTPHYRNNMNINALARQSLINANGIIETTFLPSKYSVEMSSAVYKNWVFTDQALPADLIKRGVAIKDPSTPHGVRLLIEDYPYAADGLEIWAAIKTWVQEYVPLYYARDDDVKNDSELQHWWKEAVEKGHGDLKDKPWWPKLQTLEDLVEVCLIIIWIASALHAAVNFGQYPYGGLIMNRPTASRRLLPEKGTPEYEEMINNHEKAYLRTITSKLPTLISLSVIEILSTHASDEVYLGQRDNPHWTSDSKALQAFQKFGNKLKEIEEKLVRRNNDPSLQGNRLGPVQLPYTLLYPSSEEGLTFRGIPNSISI
As to the kind of experiment: Inhibition of 15-lipoxygenase. The class given is biochemical, soybean. The following applies: phenolic compounds and metabolites; IC50 ± SD; read-out: 15-LO IC50. The protocol:
Test substances were dissolved in DMSO or water, and the assay was carried out as previously described.

Assay [3] relates to human skeletal muscle cells. As to the kind of experiment: Glucose uptake in human myotubes ([14C(U)]-glucose). The class given is cell-based. The note with it: for glucose uptake (in words): 10 µM (highest concentration tested); for increase in glucose uptake: 10 µM, 2 days, vs 0.1% DMSO control, mean ± SEM. On the procedure:
Figure 2 Effects of elderflower extracts, constituents and metabolites on glucose uptake in human myotubes. Myotubes were treated with (A) 12.5, 25 and 50 µg/mL of different crude extracts; (B,C) 0.1, 1 and 10 µM of elderflower phenolic compounds and metabolites for 2 days. Thereafter, the cells were exposed to [^14C(U)]-glucose (1 μCi/mL, 100 μM) for 4 h as described in the Materials and Methods section. 22-S-hydroxycholesterol (22-SHC) (10 μM) was used as positive control. The figures show [^14C(U)]-glucose uptake given as means ± standard error of the mean (SEM) (n = 3) from separate experiments. * p < 0.05 vs. control (0.1% dimethyl sulfoxide (DMSO)).
(§1) Satellite cells were isolated from the Musculus obliquus internus abdominis of four healthy donors, age 34.8 (±19) years, body mass index 22.9 (±2.7) kg/m^2, fasting glucose 4.9 (±0.6) mM, insulin, plasma lipids and blood pressure within normal range and no family history of diabetes. The muscle biopsies were obtained with informed consent and approval by the National Committee for Research Ethics (Oslo, Norway). The cells were cultured on 96-well CellBIND microplates DMEM-Glutamax (5.5 mM glucose), 2% fetal bovine serum, 2% Ultroser G, penicillin (100 units/mL), streptomycin (100 μg/mL) and amphotericin B (1.25 μg/mL) for proliferation. At 70%–80% confluence, the growth medium was replaced by DMEM-Glutamax (5.5 mM glucose) supplemented with 2% fetal bovine serum, penicillin (100 units/mL), streptomycin (100 μg/mL), amphotericin B (1.25 μg/mL) and insulin (25 pM), to induce differentiation. The cells were cultured in humidified 5% CO2 atmosphere at 37 °C, and the medium was changed every 2–3 days. Experiments were performed after 7 days of differentiation. 22-S-hydroxycholesterol (22-SHC) (10 µM) was used as positive control in the glucose uptake assay. The positive control used in the oleic acid assay is the synthetic liver X receptor (LXR) agonist T0901317 (10 µm).
(§2) Cells were exposed to test samples solved in 0.1% DMSO that were added directly to the medium for 2 days for myotubes and 24 h for HepG2 cells. Thereafter, cells were exposed to [^14C(U)]-glucose (1 μCi/mL, 100 μM) or [^14C]-oleic acid (37 kBq, 100 µM) for 4 h. A 96-well UniFilter-96 GF7B microplate (Perkin Elmer, Waltham, MA, USA) was mounted on top of the CellBIND plate (Corning Life-Sciences (Schiphol-Rijk, The Netherlands) and CO2 production was measured. After incubation the cells were washed twice with ice-cold phosphate buffered saline (PBS), lysed in 0.1 M NaOH, and radioactivity measured by liquid scintillation counting. The protein content of each sample was determined and glucose uptake was calculated using protein levels for standardization.

The target of assay [4] is T3, xanthine oxidase from bovine milk (Bos taurus, UniProt P80457).
T3 construct: xanthine oxidase from bovine milk; purchased Sigma-Aldrich (St. Louis, MO, USA); host or cells: bovine milk
T3 sequence (P80457 whole entry): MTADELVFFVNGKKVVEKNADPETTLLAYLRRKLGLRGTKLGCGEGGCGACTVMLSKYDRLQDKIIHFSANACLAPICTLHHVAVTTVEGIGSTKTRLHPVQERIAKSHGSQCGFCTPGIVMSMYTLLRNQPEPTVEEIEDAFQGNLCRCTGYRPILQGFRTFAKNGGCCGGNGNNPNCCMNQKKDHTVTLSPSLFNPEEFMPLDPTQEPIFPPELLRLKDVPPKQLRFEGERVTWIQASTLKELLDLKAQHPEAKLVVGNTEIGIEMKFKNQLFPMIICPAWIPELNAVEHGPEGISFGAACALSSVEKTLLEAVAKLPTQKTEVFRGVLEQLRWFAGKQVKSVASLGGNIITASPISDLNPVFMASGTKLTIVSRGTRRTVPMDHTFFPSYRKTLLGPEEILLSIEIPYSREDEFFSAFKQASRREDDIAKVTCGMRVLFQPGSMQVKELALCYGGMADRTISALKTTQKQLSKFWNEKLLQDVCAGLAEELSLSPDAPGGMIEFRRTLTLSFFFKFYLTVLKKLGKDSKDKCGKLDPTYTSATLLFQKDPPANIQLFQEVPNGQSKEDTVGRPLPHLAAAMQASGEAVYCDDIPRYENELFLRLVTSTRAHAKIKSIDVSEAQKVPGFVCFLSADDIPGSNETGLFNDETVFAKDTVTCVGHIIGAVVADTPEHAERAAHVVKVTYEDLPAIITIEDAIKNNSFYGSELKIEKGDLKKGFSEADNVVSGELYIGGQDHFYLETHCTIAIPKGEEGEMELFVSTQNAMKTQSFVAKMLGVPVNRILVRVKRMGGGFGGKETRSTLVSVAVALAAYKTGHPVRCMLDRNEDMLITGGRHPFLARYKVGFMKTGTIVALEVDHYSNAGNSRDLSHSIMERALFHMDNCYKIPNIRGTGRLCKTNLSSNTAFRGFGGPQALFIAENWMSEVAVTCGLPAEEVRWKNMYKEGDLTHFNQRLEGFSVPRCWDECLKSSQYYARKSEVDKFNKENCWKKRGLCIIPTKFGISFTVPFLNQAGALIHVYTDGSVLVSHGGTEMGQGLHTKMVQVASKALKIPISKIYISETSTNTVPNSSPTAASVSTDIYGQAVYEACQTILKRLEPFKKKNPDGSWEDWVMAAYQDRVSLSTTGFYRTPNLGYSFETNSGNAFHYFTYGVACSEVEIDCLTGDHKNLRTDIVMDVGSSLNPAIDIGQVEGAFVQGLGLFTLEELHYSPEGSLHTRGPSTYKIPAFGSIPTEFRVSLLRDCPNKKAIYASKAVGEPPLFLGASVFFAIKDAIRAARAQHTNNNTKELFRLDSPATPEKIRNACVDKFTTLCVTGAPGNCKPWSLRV
Put plainly: Inhibition of xanthine oxidase. The class given is biochemical. The following applies: for IC50: phenolic compounds and metabolites, IC50 ± SD, read-out: XO IC50; for XO inhibition (in words): up to highest concentration tested (167 µM). On the procedure:
The XO inhibitory activity with hypoxanthine as the substrate was carried out previously described. Test substances were dissolved in DMSO or water.

Assay [5] addresses T4, Porcine pancreatic α-amylase (Sus scrofa, UniProt P00690).
T4 construct: purchased Sigma-Aldrich Chemie GmbH
T4 sequence (P00690 16-511): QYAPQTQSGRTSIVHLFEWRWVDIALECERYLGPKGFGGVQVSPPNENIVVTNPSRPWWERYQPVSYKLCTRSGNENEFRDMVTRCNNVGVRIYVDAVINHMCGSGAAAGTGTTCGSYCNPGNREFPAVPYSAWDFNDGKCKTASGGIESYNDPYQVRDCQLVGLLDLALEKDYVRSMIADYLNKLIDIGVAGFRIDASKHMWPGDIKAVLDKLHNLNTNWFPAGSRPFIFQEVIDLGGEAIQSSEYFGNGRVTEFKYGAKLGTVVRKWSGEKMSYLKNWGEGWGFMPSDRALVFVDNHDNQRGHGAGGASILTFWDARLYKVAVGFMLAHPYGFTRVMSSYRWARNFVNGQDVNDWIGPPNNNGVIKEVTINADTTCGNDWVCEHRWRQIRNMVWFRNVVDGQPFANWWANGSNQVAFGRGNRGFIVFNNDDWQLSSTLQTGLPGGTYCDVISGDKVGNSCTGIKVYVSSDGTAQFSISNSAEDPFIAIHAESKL
Put plainly: α-Amylase inhibitory activity. The format is biochemical. The following applies: phenolic compounds and metabolites; IC50 ± SD. The protocol: The α-amylase assay was performed as described by Gella, et al.. Porcine pancreatic α-amylase (EC 3.2.1.1) was purchased from Sigma-Aldrich Chemie GmbH.

A short description of assay [6]: DPPH radical scavenging. The following applies: IC50 ± SD; for IC50: phenolic compounds and metabolites. On the procedure: Scavenging activity towards the DPPH radical was carried out as previously described. Test substances were dissolved in DMSO or water. Values were corrected for absorbance of the test substances.
On the technique in general: DPPH is a stable violet radical that fades when it is reduced.

Assay [7] concerns human skeletal muscle cells. As to the kind of experiment: Oleic acid uptake in human myotubes ([14C]-oleic acid). The class given is cell-based. The following applies: for oleic acid uptake (in words): 10 µM; for increase in oleic acid uptake: 10 µM (highest concentration tested), 2 days, vs 0.1% DMSO control. On the procedure:
Figure 3 Effects of elderflower extracts, constituents and metabolites on oleic acid uptake in human myotubes. Myotubes were treated with (A) 12.5, 25 and 50 µg/mL of different crude extracts; (B,C) 0.1, 1 and 10 µM of elderflower phenolic compounds and metabolites for 2 days. Thereafter, the cells were exposed to [^14C]-oleic acid (37 kBq, 100 µM) for 4 h as described in Materials and Methods. A synthetic liver X receptor (LXR) agonist T0901317 (10 μM) was used as positive control. The figures show [^14C]-oleic acid uptake given as means ± SEM (n = 3) from separate experiments. * p < 0.05 vs. control (0.1% DMSO).
as §1, §2

Assay [8] deals with HepG2-cells. Put plainly: Oleic acid uptake in HepG2-cells ([14C]-oleic acid). The format is cell-based, human. The note with it: highest concentration tested. On the procedure:
Cells were exposed to test samples solved in 0.1% DMSO that were added directly to the medium for 2 days for myotubes and 24 h for HepG2 cells. […] A 96-well UniFilter-96 GF7B microplate (Perkin Elmer, Waltham, MA, USA) was mounted on top of the CellBIND plate (Corning Life-Sciences (Schiphol-Rijk, The Netherlands) and CO2 production was measured. After incubation the cells were washed twice with ice-cold phosphate buffered saline (PBS), lysed in 0.1 M NaOH, and radioactivity measured by liquid scintillation counting. […]

For assay [9], the system named is HepG2-cells. As to the kind of experiment: Glucose uptake in HepG2-cells ([14C(U)]-glucose). The note with it: 24 h, vs 0.1% DMSO control. The format is cell-based, human. On the procedure: The human hepatoblastoma cell line HepG2 (HB-8065, ATCC, Manassas, VA, USA) was cultured in DMEM-Glutamax (5.5 mM glucose) supplemented with 10% fetal bovine serum, streptomycin (100 μg/mL) and penicillin (100 units/mL) at 37 °C in 5% CO2.
as §2

As usually defined, the IC50 is the concentration at which inhibition is half-maximal.

T1 sequence (P53341 whole entry): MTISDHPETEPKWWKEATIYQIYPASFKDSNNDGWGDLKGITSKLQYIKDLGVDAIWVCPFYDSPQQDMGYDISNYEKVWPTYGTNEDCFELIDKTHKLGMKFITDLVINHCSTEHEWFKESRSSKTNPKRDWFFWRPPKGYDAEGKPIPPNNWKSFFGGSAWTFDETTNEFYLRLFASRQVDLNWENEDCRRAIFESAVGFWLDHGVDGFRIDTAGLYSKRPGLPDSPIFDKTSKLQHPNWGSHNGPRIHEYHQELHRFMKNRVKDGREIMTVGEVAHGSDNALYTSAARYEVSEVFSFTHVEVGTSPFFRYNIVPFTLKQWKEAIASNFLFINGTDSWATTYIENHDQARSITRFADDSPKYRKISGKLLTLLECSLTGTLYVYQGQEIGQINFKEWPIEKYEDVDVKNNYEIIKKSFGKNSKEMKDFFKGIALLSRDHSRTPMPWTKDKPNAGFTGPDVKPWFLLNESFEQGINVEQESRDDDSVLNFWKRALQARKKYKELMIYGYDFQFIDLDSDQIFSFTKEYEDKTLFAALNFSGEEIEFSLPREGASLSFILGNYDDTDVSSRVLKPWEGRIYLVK

Take `O=C(O)Cc1cccc(O)c1` [3-Hydroxyphenylacetic acid]: the IC50 in [1] is 68.9 ± 3.8 µM; in [2], 134 ± 5.8 µM; in [4], above 167 µM; in assay [5], 44.8 ± 5.3 µM; in [6], 125 ± 4.8 µM. Further, the “glucose uptake (in words)” value in assay [3] is reported as “small increase”. Moreover, the “XO inhibition (in words)” value in [4] was “inactive”. For the same molecule, the “oleic acid uptake (in words)” value in assay [7] is reported as “small but significant increase”.
In the case of `Cc1ccc(O)c(O)c1` [4-Methylcatechol], the concentration for half-maximal inhibition (IC50) in assay [1] was 98.9 ± 3.5 µM; in assay [2], 129 ± 5.2 µM; in [4], above 167 µM; in [5] it was 94.8 ± 6.8 µM; in [6] it was 40.5 ± 3.6 µM. The “glucose uptake (in words)” value in [3] was “small increase”. Moreover, the “XO inhibition (in words)” value in assay [4] is “inactive”. The “oleic acid uptake (in words)” value in assay [7] is listed as “small but significant increase”.
For the molecule `O=C(/C=C/c1ccc(O)c(O)c1)O[C@@H]1C[C@](O)(C(=O)O)C[C@@H](O)[C@H]1O` [Chlorogenic acid], the values for the IC50 in assay [2], in [4] and in assay [5] were 106 ± 2.3 µM, 24.2 ± 5.3 µM and 9.1 ± 1.1 µM, respectively. In [8], the “enhancement of oleic acid uptake” value is 25.6% ± 4.6%. Besides, the “increase in oleic acid uptake” value in assay [7] is given as 17.3% ± 2.5%.
`O=c1c(O)c(-c2ccc(O)cc2)oc2cc(O)cc(O)c12` [Kaempferol]: the “maximal increase in glucose uptake” value in [9] is on record as 45.2% ± 2.6%. Also, the IC50 in assay [2] is 93.7 ± 3.7 µM; in [5], 3.6 ± 1.1 µM; in [6], 10.6 ± 3.9 µM. For the same molecule, the “increase in glucose uptake” value in [3] is recorded as 39.1% ± 5.8%. Moreover, in assay [7], the “increase in oleic acid uptake” value is on record as 25.0% ± 3.0%.
With `O=c1c(O)c(-c2ccc(O)c(O)c2)oc2cc(O)cc(O)c12` [Quercetin], the “maximal increase in glucose uptake” value in [9] was 41.1% ± 3.2%. Further, the “increase in glucose uptake” value in assay [3] is listed as 37.1% ± 4.6%. The “DPPH IC50” value in assay [6] (crude extracts) was found to be 2.8 ± 0.3 mg/L. The IC50 in assay [6] stood at 9.3 ± 1.5 µM.
